Assay results: patent US11801307B2, “Antibody-polymer-drug conjugates” (priority 2016, dated 2023)
“Also recorded” adds a separate entry of the source.

Experiments:
CD20 = target: T1, CD20 (Homo sapiens, UniProt P11836); test: RTX-Cy5 binding on the surface of Ramos cells, with and without RTX pre-blocking
T1 construct: host or cells: Ramos Burkitt's lymphoma cells
T1 sequence (P11836 1-297): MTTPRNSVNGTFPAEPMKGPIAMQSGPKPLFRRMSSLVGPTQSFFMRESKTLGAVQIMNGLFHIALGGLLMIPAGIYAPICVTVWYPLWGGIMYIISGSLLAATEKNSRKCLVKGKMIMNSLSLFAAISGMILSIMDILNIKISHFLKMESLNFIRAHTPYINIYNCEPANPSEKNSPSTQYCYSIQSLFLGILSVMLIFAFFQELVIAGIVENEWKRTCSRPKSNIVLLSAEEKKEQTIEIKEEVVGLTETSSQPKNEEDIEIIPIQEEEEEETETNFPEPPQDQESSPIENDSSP
Experimental: Non-treated, cells in culture medium; RTX-Cy5, Ramos cells (2×10^5) were treated with 1 μg RTX-Cy5 at 4° C. for 30 min; RTX Blocked+RTX-Cy5, after pre-blocking by 10 μg RTX at 4° C. for 30 min, 1 μg RTX-Cy5 was added and incubated at 4° C. for 30 min. The cells were analyzed by flow cytometry. Data are reported as MFI, mean fluorescence intensity.
To ensure CD-20 antigen expression on the surface of the Ramos cells used, the Ramos cells were exposed to RTX labeled with Cy5 (RTX-Cy5). […] This confirmed the expression of CD20 on the surface of the Ramos cells, and their specific binding affinity to RTX.

[1] = free drug; cited from earlier work
[2] = system: A2780 human ovarian carcinoma xenografts; details: 5 mg/kg EPI equivalent, day 20, s.c. model; cited from earlier work
Ramos cells = test: In vitro cytotoxicity toward Ramos cells, CCK-8 assay; format: cell-based, human; details: 48 h
Experimental: The cytotoxicity of antibody and antibody-polymer-drug conjugates against Ramos cells was measured by CCK-8 assay (Dojindo). The cells were seeded in 96-well plates at the density of 10,000 cells (200 μl) per well in RMPI-1640 media containing 10% FBS. After 24 h, RTX, RTX-EPI RTX-P-EPI, mixture of RTX with P-EPI and IgG-P-EPI (0.3 mg/ml×15 μl for antibody) in medium was added and incubated at 37° C. for 48 h. The number of viable cells was estimated using CCK-8 kit according to the manufacturer's protocol. In brief, 50 μl 5× diluted CCK-8 solution was added and incubated at 37° C., 5% CO2 for 4 h, the absorbance was measured using a microplate reader at 450 nm (630 nm as reference). Untreated control cells were set as 100% viable.
The cytotoxicity of RTX-P-EPI against Ramos cells was first evaluated at the concentration of 0.15 μM (related to RTX). Unconjugated RTX, non-specific conjugate IgG-P-EPI and directly conjugated with free drug (RTX-EPI) were used as controls. The Ramos cells were incubated with the samples for 48 h and evaluated by CCK-8 assay (FIG. 6).
10^4 Ramos cells were seeded in each well of 96-well plates in 200 μl RPMI-1640 media containing 10% FBS. Different samples (0.3 mg/ml×15 μl) were added and incubated at 37° C. in a humidified atmosphere of 5% CO2 (v/v). After 48 h, the number of viable cells was estimated using CCK-8 kit at 450 nm (630 nm as reference). […]

[3] = system: Ramos B-cell lymphoma tumors; details: i.v., 4 doses at 3-day intervals, 20 mg/kg RTX or equivalent (EPI 1.5 mg/kg)
Experimental: Ramos cells (5×10^6) in 200 μl of PBS were subcutaneously inoculated in the right flank of 7- to 9-wk-old male NOD SCID mice. Tumor size was measured with a caliper, and tumor volume was calculated according to the formula: Tumor volume (mm^3)=½×length×[…], where the length (mm) is the longest and the width (mm) is the shortest dimension of the tumor. When the average tumor size reached 150±50 mm^3, treatment was initiated (n=4-5). […] Body weight variation was computed by the equation: variation=(WDayn−WDay0)/WDay0×100%. […] Saline was used as non-treated control. […] The data are presented as mean±SD (n=4-5).
NOD SCID mice were subcutaneously implanted with Ramos cells (5×10^6 cells/200 μl saline) into the right flank. […] Saline was injected as control. […] Mice were treated with 4 doses at 3-day intervals.
In addition, body weight of the mice was closely recorded during and after treatment. […] Four-doses were administered on days 11, 14, 17 and 20.

Raji cells = test: Apoptosis induction in Raji cells, Annexin V/PI staining; format: cell-based, human; details: RTX alone
Experimental: Incubation time was 48 h.
Percentage of apoptotic cells was quantified by flow cytometry. All data are presented as mean±SD (n=3).
This raises the likelihood that this system will be efficient in the treatment of RTX-resistant disease.

[4] = Blood pharmacokinetics of 125I-labeled conjugates; format: in vivo, male NOD SCID mice; details: i.v. 3.5 mg/kg single dose
Experimental: The conjugates were radioiodinated by the Iodogen method as previously described (Liu et al., 2009). 7-9 week-old healthy male NOD/SCID mice (n=3) were intravenously injected with ^125I labeled RTX, RTX-P-EPI or IgG-P-EPI conjugates (0.1 mg, 20 μCi per mouse), respectively. At predetermined intervals, blood samples (10 μl) were taken from the tail vein, and the radioactivity of each sample was measured with Gamma Counter (Packard).
The pharmacokinetic properties of ^125I labeled RTX, RTX-P-EPI and IgG-P-EPI were evaluated in male NOD SCID mice. Antibody was radiolabeled by ^125I and i.v. injected at 3.5 mg/kg (based on antibody for RTX, RTX-P-EPI, and IgG-P-EPI) single dose.

[5] = Biodistribution of 125I-labeled conjugates in mice bearing s.c. Ramos tumors; format: in vivo, male NOD SCID mice; details: 72 h after intravenous injection
Experimental: For biodistribution study, 7-9 week-old male NOD SCID mice bearing s.c. Ramos tumors received intravenous injection of ^125I labeled RTX, RTX-P-EPI, or IgG-P-EPI (0.1 mg, 20 μCi per mouse). At 72 and 96 h after administration, the mice were sacrificed. Various tissues (heart, liver, spleen, lung, kidney, stomach, intestine, muscle, bone, brain and tumor) were harvested, weighed, and counted for radioactivity with Gamma Counter (Packard). Uptake of the conjugate was calculated as the percentage of the injected dose per gram of tissue (% ID/g). Data are presented as mean±standard deviation (n=3).
The biodistribution of RTX, RTX-P-EPI and IgG-P-EPI labeled by ^125I in male NOD SCID mice bearing s.c. xenograft tumor model was also compared.

low-grade NHL = details: disease progression or relapse after prior RTX; cited from earlier work

RTX-Cy5
Cy5 signal of Ramos cells incubated with RTX-Cy5 (CD20; 1 μg RTX-Cy5, 4° C., 30 min): high Cy5 signal
Cy5 signal after CD20 receptors were blocked with over-saturation dose of RTX (CD20; pre-blocking by 10 μg RTX, then 1 μg RTX-Cy5): no Cy5 signal detectable

COc1cccc2c1C(=O)c1c(O)c3c(c(O)c1C2=O)C[C@@](O)(C(=O)CO)C[C@@H]3O[C@H]1C[C@H](N)[C@@H](O)[C@H](C)O1 [EPI, epirubicin]
terminal half-life [1]: 9 to 20 min
tumor size relative to baseline [2]: 1772±840 % of the baseline

RTX-EPI: control conjugate in which EPI was directly attached to RTX via maleimide, EPI/RTX 3.1
kill of Ramos cells (Ramos cells; 0.15 μM (related to RTX)): 18%
antitumor effect (in words) [3]: marginal effects

Rituximab [RTX, reference compound]
cytotoxicity against Ramos cells (in words) (Ramos cells; 0.15 μM): nearly undetectable
change of apoptosis level on increase of antibody concentration from 0.2 μM to 2 μM (Raji cells): did not significantly enhance the apoptosis level; also recorded: did not increase
antitumor effect (in words) [3]: marginal effects
AUC (total area under the blood concentration versus time curve) [4]: 716.46 ± 66.64 % ID h/mL
level in the tumor [5]: 0.71 % ID/g tissue
patients responding to RTX re-treatment (low-grade NHL): 40%
